The values below come from EP4745130A1, “CRYSTAL FORMS OF TUBULIN-SRC DUAL-TARGETING INHIBITOR, PREPARATION METHOD THEREFOR AND USE THEREOF” (Hubei Bio-Pharmaceutical Industrial Technological Institute …, priority 2023, dated 2025).

One assay concerns the target T1, tubulin (Sus scrofa, UniProt P02550+P02554).
T1 construct: purchased cytoskeleton BK011P
Description: Inhibition test of tubulin monomer polymerization (Tubulin polymerization assay kit, fluorescence). Format: biochemical. Here is the method:
Tubulin polymerization assay kit (cytoskeleton, Cat. # BK011P) was used to conduct the compound inhibition test of tubulin monomer polymerization.
Before the test, the 96-well plate (Corning Costar, Cat. # 3686) supplied with the kit was first placed in a microplate reader (MD, SpectraMax M5) and heated to 37°C, maintained for 10 minutes. The 96-well plate was then removed, and 5 µL of 12.5 µM compound solution or blank solution was added thereto. The 96-well plate was then placed back into the microplate reader and incubated at 37°C for 1 minute to heat the compound solution to 37°C. The 96-well plate was removed and 50 µL of reaction mixture prepared according to the supplier's instructions was quickly added to each well, completing the sample addition within 1 minute to avoid the formation of bubbles. The 96-well plate was then immediately placed back into the microplate reader, shaken for 5 seconds, and using the Kinetic mode, continuous detection was carried out at 37°C for 30 to 60 minutes under the conditions of excitation light at 360 nm and emission light at 420 nm, with detection every 30 seconds. Taking the detection time as the X-axis and the fluorescence signal value as the Y-axis, the tubulin monomer polymerization curve was obtained. As shown in FIG. 66 and Table 40, the larger the Vmax value and the higher the maximum fluorescence signal value of the polymerization curve, the lower the inhibitory efficiency of the compound.

Another assay concerns p-SRC. As to the kind of experiment: Inhibition of Src signaling pathway (Western Blot of p-SRC in A-431 cells). The assay is classed as cell-based, Human. Here is the method: The Western Blot method was used to detect the compound's inhibition of p-SRC in A-431 skin cancer cells (ATCC, CRL-1555) to evaluate the inhibitory effect of the compound on the SRC signaling pathway.
A-431 cells were cultured in DMEM medium containing 10% fetal bovine serum and grown at 37°C in a 5% CO2 incubator. 500,000 cells/well were seeded in a 12-well cell culture plate and cultured overnight at 37°C in a 5% CO2 incubator. The next day, the culture medium was replaced and different concentrations of the compound were added, with DMSO serving as a control. After the addition of the compounds, the culture plate was cultured for another 24 hours at 37°C in a 5% CO2 incubator. The cells were washed once with PBS, and lysed with RIPA lysis buffer (R0010, Solarbio) at low temperature for 30 minutes. Afterwards, the protein lysate was collected into a centrifuge tube, centrifuged at 14,000 g at 4°C for 10 minutes, and the supernatant was transferred to a new tube. The BCA protein concentration assay kit (P0009, Beyotime Biotechnology) was used to detect and calculate the protein concentration. A 5× protein loading buffer was used to quantify the protein of each sample consistently. The samples were boiled at 100°C for 5 minutes, and subjected to western blot to detect the level of p-SRC. […]
(In western blotting, separated proteins are transferred to a membrane and probed.)

T1 sequence (P02550 whole entry): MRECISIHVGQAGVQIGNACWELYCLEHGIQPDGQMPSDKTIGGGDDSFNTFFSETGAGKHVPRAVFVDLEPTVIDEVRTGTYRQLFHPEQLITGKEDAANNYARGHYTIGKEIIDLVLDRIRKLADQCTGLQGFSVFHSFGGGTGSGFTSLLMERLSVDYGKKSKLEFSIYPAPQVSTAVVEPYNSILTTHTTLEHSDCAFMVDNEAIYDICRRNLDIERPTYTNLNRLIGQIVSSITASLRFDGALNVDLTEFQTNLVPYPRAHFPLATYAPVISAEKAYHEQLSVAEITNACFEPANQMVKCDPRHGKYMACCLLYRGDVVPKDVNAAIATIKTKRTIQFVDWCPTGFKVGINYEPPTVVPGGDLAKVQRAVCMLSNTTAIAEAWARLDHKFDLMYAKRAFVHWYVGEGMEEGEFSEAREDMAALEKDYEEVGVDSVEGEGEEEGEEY
T1 sequence (P02554 whole entry): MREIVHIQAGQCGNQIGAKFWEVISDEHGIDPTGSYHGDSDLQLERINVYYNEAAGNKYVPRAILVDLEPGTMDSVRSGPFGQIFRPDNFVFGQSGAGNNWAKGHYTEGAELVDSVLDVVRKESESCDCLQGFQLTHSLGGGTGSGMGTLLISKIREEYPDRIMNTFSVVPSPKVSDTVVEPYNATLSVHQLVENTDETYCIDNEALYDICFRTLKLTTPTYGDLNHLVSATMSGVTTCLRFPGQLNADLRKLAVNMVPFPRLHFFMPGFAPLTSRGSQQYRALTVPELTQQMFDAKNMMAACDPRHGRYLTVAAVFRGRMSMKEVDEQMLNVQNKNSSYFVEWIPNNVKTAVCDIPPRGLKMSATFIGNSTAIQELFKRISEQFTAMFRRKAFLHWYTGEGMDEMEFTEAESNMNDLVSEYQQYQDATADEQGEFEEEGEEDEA

At tubulin (5 µL of 12.5 µM compound solution, fluorescence ex 360 nm / em 420 nm, 37°C, larger value = lower inhibitory efficiency), `Cc1cc(OCCN2C[C@H]3COC[C@H]3C2)ccc1-c1ccc(CC(=O)NCc2ccccc2)nc1` [Compound of Formula I, N-benzyl-2-(5-(2-methyl-4-(2-((3aR,6aS)-tetrahydro-1H-furo[3,4-c]pyrrol-5(3H)-yl)ethoxy)phenyl)pyridin-2-yl)acetamide] gave a Maximum signal value of 478. Further, on tubulin (in words), the “Vmax value and maximum fluorescence signal value of the polymerization curve” value is given as “significantly smaller”. Further, the “phosphorylation of SRC” value in the assay with p-SRC (80 nM, A-431 cells, 24 hours) is recorded as “significantly inhibit the phosphorylation of SRC”. The p-SRC inhibitory activity result with p-SRC (in words, compared with the control compound) is reported as “better p-SRC inhibitory activity compared with the control compound”.
